According to patent publication US5665714A, “N-substituted glycerophosphoethanolamines” (Clarion Pharmaceuticals Inc., priority 1996, dated 1997):

Experiments:
[1] = system: MDA-MB-231 estrogen receptor negative human breast carcinoma cell line; experiment: in vitro MDA-MB-231 cell inhibition assay (anti-tumor/antineoplastic activity, sulforhodamine B); assay type: cell-based; conditions: MDA-MB-231, 48 hours, 0 to 100 μM, FIG. 1, read-out: marked inhibition of cell growth at concentrations above
Text: FIG. 1 is a graphical representation of results from an in vitro MDA-MB-231 cell inhibition assay of two compounds of the invention, designated CPR 3003 and CPR 3004.
(§1) Assay for Anti-Tumor/Antineoplastic Activity
(§2) 1. Human tumor cell lines, available from the American Type Culture Collection (ATCC):
a. MDA-MB-231 (ATCC HTB 26): an estrogen receptor negative human breast carcinoma cell line (attachment dependent); and
a. for cell line 1-a: Dulbecco's Modified Eagle's Medium (DMEM) plus 10% Fetal Bovine Serum (FBS); and
(§3) 3. Standard protocol for culturing cell lines: in T-75 or T-150 flasks; 37° C.; 95% air, 5% CO2; 100% humidity.
(§4) a. Cell lines 1-a and 1-b are passaged when approximately 80% confluent; with trypsin (1 mg/mL) and EDTA (1 mM EDTA in Ca-Mg free Hank's balanced salt solution); at a 1:4 to 1:5 split.
b. […]
(§5) h. Read absorbance at 564 nm using a standard 96-well microtiter plate reader. Absorbance readings are linear with dye concentrations below 1.8 absorbance units. To reduce absorbance, decrease wavelength at which measurements are taken.
(§6) a. For a single point reading, a higher absorbance indicates a higher cell number; […]
(§7) d. Calculate CN (cell number as % of Control): [formula] where A(test compound) is absorbance with test compound present in the culture medium, A(control) is absorbance of control, and A(background) is absorbance of background;

[2] = system: HT-29 human colon carcinoma cell line; experiment: in vitro HT 29 cell inhibition assay (anti-tumor/antineoplastic activity, sulforhodamine B); assay type: cell-based; conditions: HT-29, 48 hours, 0 to 100 μM, FIG. 2, read-out: marked inhibition of cell growth at concentrations above
Text: FIG. 2 is a graphical representation of results from an in vitro HT 29 cell inhibition assay of two compounds of the invention, designated CPR 3003 and CPR 3004.
as §1, §2
b. HT-29 (ATCC HTB 38): a human colon carcinoma cell line (attachment dependent).
b. for cell line 1-b: 1:1 DMEM and Ham's F-12 (DMEM/F12) plus 10% FBS.
as §3, §4
b. All procedures are performed aseptically in a Class II biological safety cabinet using standard BL-2 containment procedures. […]
as §5, §6, §7

[3] = system: PAM-212 murine keratinocyte cell line; experiment: Assay for anti-psoriatic activity by inhibition of keratinocyte proliferation (PAM-212); assay type: cell-based, murine (BALB/c mice); conditions: Mus musculus, PAM212; PAM-212, 48 hours, FIG. 3; read-out: marked inhibition of keratinocyte-proliferation at concentrations above
Text: FIG. 3 is a graphical representation of results from an in vitro PAM-212 cell inhibition assay of two compounds of the invention, designated CPR 3003 and CPR 3004.
Assay for Anti-psoriatic Activity by Inhibition of Keratinocyte Proliferation
1. Cell line: PAM-212 murine keratinocyte cell line isolated and cultivated from newborn BALB/c mice (see S. H. Yuspa et al., Cancer Research, 40, 4694-4703, December, 1980) that appears to retain many characteristics of normal keratinocytes.
2. Culture medium: 1:1 DMEM and Ham's F-12 with 10% FBS.
3. Culture conditions are the same as those described previously in parts 3(a) and 3(b) of Example 9.
4. Methodology is the same as that described previously in part 4 of Example 9, except that, with reference to part 4 (b), cell concentration is adjusted to 1,000 cells per 100 μL (rather than 5,000 cells per 100 μL), and, with reference to part 4(e), test compounds are diluted in DMEM/F12 prior to addition to cell wells.
5. End point determination and data analysis are done as described previously in parts 5 and 6 of Example 9.

[4] = system: RAW 264.7 murine monocyte/macrophage line; experiment: Assay for anti-inflammatory activity by inhibition of macrophage chemiluminescence (RAW 264.7, PMA, luminol); assay type: cell-based; conditions: 1 minute
Text: FIG. 4 is a graphical representation of results from an in vitro RAW 264.7 cell macrophage inhibition chemiluminescence assay of two compounds of the invention, designated CPR 3003 and CPR 3004.
Assay for Anti-inflammatory Activity by Inhibition of Macrophage Chemiluminescence
The RAW 264.7 cell line (available from the ATCC under accession no. TIB 71) is a murine monocyte/macrophage line the cells of which show many of the differentiative functions of a macrophage. Like macrophages, the cells are capable of phagocytosis and undergo a respiratory burst (increased oxygen consumption) and production of oxygen radicals (e.g., superoxide) in response to appropriate activation signals. Agents that inhibit the activation of these cells in vitro, so as to inhibit the respiratory burst and corresponding production of oxygen radicals associated with the activation, are therefore inhibitors of macrophage activation and critical steps in inflammatory processes. These agents are likely, then, to be anti-inflammatories.
The respiratory burst and corresponding production of oxygen radicals that accompany macrophage activation can be measured in a variety of ways, including chemiluminescence based on the reaction of the oxygen radicals with luminol added to the culture medium (see M. A. Trush et al, 1978, "The Generation of Chemiluminescence by Phagocytic Cells." Methods in Enzymology 57: 462-494). Indeed, chemiluminescence generated from luminol in the culture medium of macrophage cell lines is recognized in the art as a marker of macrophage activation.
1. Cell line: RAW 264.7 (ATCC TIB 71);
2. Culture medium: DMEM with 10% FBS (attachment dependent);
3. Standard protocol for culturing cell lines: in T-75 or T-150 flasks; 37° C.; 95% air, 5% CO2; 100% humidity;
4. Cell lines are passaged when approximately 80% confluent with trypsin (1 mg/mL) and EDTA ([…] in Ca-Mg free Hank's balanced salt solution), at a 1:4 to 1:5 split;
5. Trypsinize the cells and count with a hemocytometer;
6. Adjust concentration of cells to approximately 1,000,000 cells per mL;
7. Suspend cells in DMEM lacking phenol red and without FBS;
8. Pipette 1 mL, into a standard luminometer cuvet (12×75), commercially available from Analytical Luminescence Laboratories (San Diego, Calif.);
9. Add luminol to final concentration of 1 μM;
10. Add test compound at concentrations of 0, 1, 3, 10, or 30 μM;
11. Add 100 nanograms of phorbol myristate acetate (PMA);
12. Wait 1 minute and read photo counts (i.e., luminescence) on a Monolight 2010 luminometer available from Analytical Luminescence Laboratories;
13. The results are represented in FIG. 4, which illustrates the marked decrease in measured luminescence by the compounds tested at concentrations above 1 μM. Results are calculated as percent of control (no test compound present);
14. The results are also presented in Table 1, which tabulates the measured luminescence units at the indicated concentration of tested compound.

[5] = system: tumor; conditions: Andreesen, Prog. Biochem. Pharmacol. 22, 118-131; cited from earlier work
[6] = system: PAF (Platelet Activating Factor)-induced increase in TPR (Total Pulmonary Resistance); experiment: Assay for anti-PAF activity in anesthetized guinea pigs (PAF-induced increase in total pulmonary resistance); assay type: in vivo, guinea pig; conditions: for PAF-induced increase in TPR, % of Controls: n = 5, PAF Control 112.2
Description: FIG. 5 is a graphical representation of results from an in vivo antagonism of PAF (Platelet Activating Factor)-induced increase in TPR (Total Pulmonary Resistance) by the compound of the invention, designated CPR 3003.
Assay for Anti-PAF Activity in Anesthetized Guinea Pigs
Guinea pigs of 650-1000 g were used in order to facilitate catheterization of the jugular vein and carotid artery. The guinea pigs were anesthetized with 35-45 mg/kg pentobarbital sodium. When or if the recordings described below were unstable, anesthetic additions were made during the course of the intervention. The cutdown was a ventral medial incision over the cervical area so that the trachea, jugular vein and carotid artery could be cannulated. The animals were immediately attached to a volume regulated Harvard® rodent respirator, Model 683, via a tracheostomy and the respirator was set at 60 respirations per minute and a volume of 8 ml/kg to maintain a normal arterial PCO2 of approximately 40 mm Hg. Pancuronium bromide, a muscle relaxant, was then given intravenously at a dose of 0.2 mg/kg to prevent spontaneous breathing. A tube was connected to the respirator pump and the endotracheal catheter was attached to a pressure-transducing strain gauge and then to a 2-channel Gilson® physiological recorder. One channel of the recorder inscribed the pressure tracing from the airway; the second channel inscribed the pressure tracing from a similar strain gauge attached directly to a catheter inserted into the carotid artery. These two parameters were measured before and after each drug was given and at each increment in the dose response studies with each drug candidate and recorded. Total pulmonary resistance (TPR) was calculated as the difference between the expiratory pressure and inspiratory pressures with a constant volume.
After the anesthetic and muscle relaxant were given, the animal was allowed to stabilize. The airway was gently suctioned with a syringe and the lungs are briefly inflated by closing the expiratory port on the ventilator until the pressure was approximately three times resting pressure. When the pressure returned to a steady state, this TPR was considered control pressure. The dose-related increases or decreases were quantitated against these controls to determine the percent inhibition of PAF activity. Two doses of PAF were given as controls before the test compound was administered.
Decreases of TPR in a dose-related way indicate an inhibition of the constrictor activity of PAF on the airway.

SMILES	minimal effective concentration [1] [µM]	minimal effective concentration [2] [µM]	minimal effective concentration [3] [µM]	measured luminescence ([4]; 1 μM test compound)	measured luminescence ([4]; 3 μM test compound)	measured luminescence ([4]; 10 μM test compound)	measured luminescence ([4]; 30 μM test compound)	anti-tumor activity [5]	PAF-induced increase in TPR, % of Controls ([6]; 1 μM)	PAF-induced increase in TPR, % of Controls ([6]; 10 μM)	PAF-induced increase in TPR, % of Controls ([6]; .1 μM)	change of PAF-induced increase in TPR ([6]; incremental doses of 0.1, 1, and 10 μM)
CCCCCCCCCCCCCCCCCCOCC(COP(=O)(O)OCCNC1=NCCN1)OC (stereo not shown) [CPR 3004, 1-O-n-octadecyl-2-O-methyl-glycero-3-phospho-N-(2-imidazolinyl)-ethanolamine]	> 3	> 3	> 10	524,414 Luminescence Units	134,836 Luminescence Units	23,849 Luminescence Units	6,128 Luminescence Units	–	–	–	–	–
CCCCCCCCCCCCCCCCCCOC[C@H](COP(=O)([O-])OCC[N+](C)(C)C)OC [ET 18-OCH3, 1-O-octadecyl-2-O-methyl-sn-glycero-3-phosphocholine]	–	–	–	–	–	–	–	markedly potent anti-tumor activity	–	–	–	–
CCCCCCCCCCCCCCCCCCOCC(COP(=O)(O)OCCNC1=NCCN1C1=NCCN1)OC (stereo not shown) [CPR 3003, 1-O-n-octadecyl-2-O-methyl-glycero-3-phospho-N-[3-(2-imidazolinyl)-2-imidazolinyl]-ethanolamine]	> 3	> 3	> 10	2,051,640 Luminescence Units	755,617 Luminescence Units	224,213 Luminescence Units	18,228 Luminescence Units	–	110 % of Controls	7 % of Controls	232.2 % of Controls	change the PAF-induced increase in TPR in all animals
